Source: the supplement of paper PMC10307832

Experiments:
Experiment in all cases: relative viability (nuclei count vs DMSO), 5 days (fraction); higher = more cells survive
[1] = compound: CN(C)C/C=C/C(=O)Nc1cc2c(Nc3ccc(F)c(Cl)c3)ncnc2cc1O[C@H]1CCOC1 [Afatinib] + CC(=O)c1c(C)c2cnc(Nc3ccc(N4CCNCC4)cn3)nc2n(C2CCCC2)c1=O [Palbociclib] (partner 0.5 µM)
Procedure, shortened: (§1)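 Relative viability divides the nuclei count in treated wells by that in vehicle wells. Lung cancer cell lines were seeded in 1536-well plates, dosed by pin tool the next day, and fixed and stained after 5 days in one step with final 0.05% Triton X-100, 1% formaldehyde and 1 ug/ml Hoechst. Dosing was a single drug or a fixed anchor-drug dose plus five library-drug doses (not always all listed) in √10 steps, and values are medians of duplicate plates imaged at 4×.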

[2] = compound: CN(C)C/C=C/C(=O)Nc1cc2c(Nc3ccc(F)c(Cl)c3)ncnc2cc1O[C@H]1CCOC1 [Afatinib] + CC(C)C[C@H](NC(=O)[C@H](Cc1ccccc1)NC(=O)c1cnccn1)B(O)O [Bortezomib] (partner 0.002 µM)
Procedure, shortened: as §1

[3] = compound: CN(C)C/C=C/C(=O)Nc1cc2c(Nc3ccc(F)c(Cl)c3)ncnc2cc1O[C@H]1CCOC1 [Afatinib] + Cc1nc(Nc2ncc(C(=O)Nc3c(C)cccc3Cl)s2)cc(N2CCN(CCO)CC2)n1 [Dasatinib] (partner 0.075 µM)
Procedure, shortened: as §1

[4] = compound: CN(C)C/C=C/C(=O)Nc1cc2c(Nc3ccc(F)c(Cl)c3)ncnc2cc1O[C@H]1CCOC1 [Afatinib] + Cc1nc(NC(=O)N2CCC[C@H]2C(N)=O)sc1-c1ccnc(C(C)(C)C(F)(F)F)c1 [Alpelisib] (partner 2 µM)
Procedure, shortened: as §1

Row | Cell Line | relative viability ([1]; first compound 0.005 µM) | relative viability ([1]; first compound 0.01581 µM) | relative viability ([1]; first compound 0.05 µM) | relative viability ([1]; first compound 0.1581 µM) | relative viability ([1]; first compound 0.5 µM) | relative viability ([2]; first compound 0.005 µM) | relative viability ([2]; first compound 0.01581 µM) | relative viability ([2]; first compound 0.05 µM) | relative viability ([2]; first compound 0.1581 µM) | relative viability ([2]; first compound 0.5 µM) | relative viability ([3]; first compound 0.005 µM) | relative viability ([3]; first compound 0.01581 µM) | relative viability ([3]; first compound 0.05 µM) | relative viability ([3]; first compound 0.1581 µM) | relative viability ([3]; first compound 0.5 µM) | relative viability ([4]; first compound 0.005 µM) | relative viability ([4]; first compound 0.01581 µM) | relative viability ([4]; first compound 0.05 µM) | relative viability ([4]; first compound 0.1581 µM) | relative viability ([4]; first compound 0.5 µM)
1 | LC-2-ad | 0.494 | 0.489 | 0.483 | 0.447 | 0.477 | 1.01 | 1.03 | 1.06 | 0.991 | 1.19 | 0.735 | 0.389 | 0.527 | 0.509 | 0.477 | 0.892 | 0.441 | 0.819 | 0.687 | 0.784
2 | A-427 | 0.523 | 0.526 | 0.537 | 0.483 | 0.505 | 0.981 | 1.05 | 1 | 1.05 | 1.04 | 0.661 | 0.741 | 0.631 | 0.669 | 0.72 | 1.04 | 1.11 | 1.18 | 0.973 | 1.09
3 | NCI-H322M | 0.467 | 0.434 | 0.394 | 0.358 | 0.378 | 0.721 | 1.03 | 0.663 | 0.563 | 0.512 | 0.246 | 0.229 | 0.231 | 0.233 | 0.248 | 0.666 | 0.519 | 0.495 | 0.384 | 0.335
4 | HCC-366 | 0.469 | 0.361 | 0.443 | 0.37 | 0.456 | 1.1 | 1.07 | 1.08 | 0.972 | 1.06 | 0.697 | 0.666 | 0.605 | 0.62 | 0.723 | 0.375 | 0.423 | 0.41 | 0.308 | 0.485
5 | NCI-H1975 | 0.72 | 0.469 | 0.472 | 0.253 | 0.21 | 0.358 | 0.345 | 0.309 | 0.171 | 0.189 | 0.455 | 0.386 | 0.306 | 0.15 | 0.11 | 0.628 | 0.511 | 0.43 | 0.197 | 0.206
6 | NCI-H1437 | 0.305 | 0.294 | 0.281 | 0.31 | 0.341 | 0.941 | 0.52 | 0.446 | 0.496 | 0.554 | 0.464 | 0.408 | 0.403 | 0.372 | 0.352 | 0.99 | 1.06 | 1.04 | 0.924 | 1.01
7 | NCI-H2009 | 0.238 | 0.25 | 0.253 | 0.231 | 0.247 | 1.09 | 1.01 | 0.991 | 1 | 1.03 | 0.306 | 0.295 | 0.341 | 0.259 | 0.285 | 1.23 | 1.15 | 1.22 | 1.17 | 1.14
8 | NCI-H1651 | 0.561 | 0.508 | 0.501 | 0.495 | 0.459 | 1.08 | 0.912 | 0.926 | 1.02 | 0.884 | 0.483 | 0.426 | 0.407 | 0.386 | 0.381 | 1.02 | 0.881 | 0.906 | 0.953 | 0.849
